row,SMILES,melting point
1,"CC(=O)c1sc(-c2ccncc2)c(-c2ccncc2)c1C [Example 14, 2-Acetyl-3-methyl-4,5-di(4-pyridyl)thiophene]",140 to 142 °C
2,"Cc1c(-c2ccncc2)oc2c1C(=O)C(C)(C)CC2 [Example 6, 4-Oxo-2-(4-pyridyl)-3,5,5-trimethyl-4,5,6,7-tetrahydrobenzofuran]",133 to 134 °C
3,"CC(=O)c1c(-c2ccncc2)sc(-c2ccncc2)c1C [Example 15, 3-Acetyl-4-methyl-2,5-di(4-pyridyl)thiophene]",137 to 138 °C
4,"CC(=O)c1c(C)sc(-c2ccncc2)c1C [Example 18, 3-Acetyl-2,4-dimethyl-5-(4-pyridyl)thiophene]",80 to 81 °C
5,"Cc1c(-c2ccncc2)sc(-c2ccncc2)c1CF [Example 65, 2,5-Di(4-pyridyl)-3-fluoromethyl-4-methylthiophene]",148 to 148.5 °C
6,"O=C(c1ccccc1)c1cc(-c2ccncc2)sc1-c1ccncc1 [Example 33, 3-Benzoyl-2,5-di(4-pyridyl)thiophene]",168 to 170 °C
7,"CC(=O)c1c(-c2ccccc2)oc(-c2ccncc2)c1C [Example 3, 3-Acetyl-4-methyl-2-phenyl-5-(4-pyridyl)furan]",108 to 110 °C
8,"CC(=O)c1c(-c2ccsc2)sc(-c2ccncc2)c1C [Example 35, 3-Acetyl-4-methyl-5-(4-pyridyl)-2-(3-thienyl)thiophene]",98 to 100 °C
9,"O=C1CCc2c(-c3ccncc3)sc(-c3ccc(C(F)(F)F)cc3)c21 [Example 66, 1-(4-Pyridyl)-3-(4-trifluoromethylphenyl)-5,6-dihydro-4H-cyclopenta(c)thiophene-4-one]",158 to 160 °C
10,"CC(=O)c1cc(-c2ccncc2)sc1Oc1ccc(F)cc1 [Example 62, 3-Acetyl-2-(4-fluorophenoxy)-5-(4-pyridyl)thiophene]",147 to 149 °C
11,"CNC(=O)c1cc(-c2ccncc2)sc1-c1ccncc1 [Example 52, N-Methyl-{2,5-di(4-pyridyl)thiophen-3-yl}carboxamide]",197 to 199 °C
12,"CC(=O)c1cc(-c2ccncc2)sc1Oc1ccccc1F [Example 56, 3-Acetyl-2-(2-fluorophenoxy)-5-(4-pyridyl)thiophene]",93 to 96 °C
13,"CC(=O)c1cc(-c2ccncc2)sc1N1CCN(C)CC1 [Example 38, 3-Acetyl-2-(4-methylpiperazin-1-yl)-5-(4-pyridyl)thiophene]",115 to 117 °C
14,"NC(=O)CCc1cc(-c2ccncc2)sc1-c1ccncc1 [Example 70, 3-[2,5-di-(4-pyridyl)3-thienyl]propionamide]",196 to 196.5 °C
15,CC(=O)c1c(CC(C)C)oc(-c2ccncc2)c1C.Cl,171 to 174 °C
16,Cc1c(-c2ccncc2)sc(-c2ccncc2)c1CNO.Cl.Cl.Cl,219 to 222 °C (dec.)
17,"CC(=O)c1cc(-c2ccncc2)sc1Oc1ccccc1 [Example 42, 3-Acetyl-2-phenoxy-5-(4-pyridyl)thiophene]",103 to 105 °C
18,Cc1c(-c2ccncc2)sc(-c2ccncc2)c1C=NO.Cl.Cl,258 to 261 °C (dec.)
19,"CC(C)OC(=O)c1cc(-c2ccncc2)sc1-c1ccncc1 [Example 60, 3-(Isopropyloxycarbonyl)-2,5-di(4-pyridyl)thiophene]",139 to 142 °C
20,"CCc1c(-c2ccncc2)oc2c1C(=O)CCC2(C)C [Example 11, 3-Ethyl-7,7-dimethyl-4-oxo-2-(4-pyridyl)-4,5,6,7-tetrahydrobenzofuran]",86 to 88 °C
21,"Cc1c(-c2ccncc2)sc2c1C(=O)CCC2 [Example 20, 3-Methyl-4-oxo-2-(4-pyridyl)4,5,6,7-tetrahydrobenzothiophene]",129 to 130 °C
22,"O=C1CCc2c(-c3ccncc3)sc(-c3ccncc3)c21 [Example 22, 1,3-Di(4-pyridyl)-5,6-dihydro-4H-cyclopenta(c)thiophen-4-one]",168 to 170 °C
23,"Cc1c(-c2ccncc2)oc2c1C(=O)CCC2(C)C [Example 7, 4-Oxo-2-(4-pyridyl)-3,7,7-trimethyl-4,5,6,7-tetrahydrobenzofuran]",138 to 140 °C
24,"CC(=O)c1csc(-c2ccncc2)c1C [Example 27, 4-Acetyl-3-methyl-2-(4-pyridyl)thiophene]",87 to 87.5 °C
25,"CC1(C)CCC(=O)c2c1oc(-c1ccncc1)c2-c1ccccc1 [Example 12, 7,7-Dimethyl-3-phenyl-4-oxo-2-(4-pyridyl)4,5,6,7-tetrahydrobenzofuran]",156 to 157 °C
26,CC(=O)c1cc(-c2ccncc2)sc1Oc1cccc(Oc2ccc(F)cc2)c1.Cl,251 to 253 °C
27,"O=C1CCc2c(-c3ccncc3)sc(-c3cccnc3)c21 [Example 63, 1-(4-Pyridyl)-3-(3-pyridyl)-5,6-dihydro-4H-cyclopenta(c)thiophene-4-one]",214 to 216 °C
28,"O=C1CCCc2sc(-c3ccncc3)cc21 [Example 16, 4-Oxo-2-(4-pyridyl)-4,5,6,7-tetrahydro-benzo(b)thiophene]",156 to 158 °C

row,SMILES,melting point
1,"O=S(=O)(c1cc(-c2ccncc2)sc1-c1ccncc1)N1CCCC1 [Example 25, 2,5-Di(4-pyridyl)-3-(pyrrolidine-1-sulfonyl)thiophene]",193 to 195 °C
2,"Cc1c(-c2ccncc2)oc2c1C(=O)CCC2 [Example 2, 3-Methyl-4-oxo-2-(4-pyridyl)-4,5,6,7-tetrahydrobenzofuran]",136 to 138 °C
3,"O=C1CCCc2c(-c3ccncc3)sc(-c3ccncc3)c21 [Example 41, 1,3-Di(4-pyridyl)-4,5,6,7-tetrahydrobenzo(c)thiophen-4-one]",157 to 160 °C
4,CCOC(=O)CCc1cc(-c2ccncc2)sc1-c1ccncc1.Cl.Cl,205 to 208 °C (dec.)
5,"CC(=O)c1sc(-c2ccncc2)c(C)c1-c1ccncc1 [Example 13, 2-Acetyl-4-methyl-3,5-di(4-pyridyl)thiophene]",117 to 118 °C
6,"Cc1c(-c2ccncc2)oc2c1C(=O)OC(C)C2 (stereo not shown) [Example 10, 6,7-Dihydro-3,6-dimethyl-2-(4-pyridyl)-furo[3,2-c]pyran-4-one]",157 to 160 °C
7,"CC(=O)c1sc2sc(-c3ccncc3)c(C)c2c1C [Example 43, 2-Acetyl-3,4-dimethyl-5-(4-pyridyl)thieno[2,3-b]thiophene]",171 to 173 °C
8,"O=C1CCc2c(-c3ccc(F)cc3)sc(-c3ccncc3)c21 [Example 67, 1-(4-Fluorophenyl)-3-(4-pyridyl)-5,6-dihydro-4H-cyclopenta(c)thiophene-4-one]",155 to 157 °C
9,"CN(C)C(=O)CCc1cc(-c2ccncc2)sc1-c1ccncc1 [Example 49, N,N-Dimethyl-3-[2,5-di-(4-pyridyl)3-thienyl]propionamide]",166.5 to 167 °C
10,"O=C1CCc2c(-c3ccncc3)sc(-c3ccccc3F)c21 [Example 53, 3-(2-Fluorophenyl)-1-(4-pyridyl)-5,6-dihydro-4H-cyclopenta(c)thiophene-4-one]",133 to 135 °C
11,"CC(=O)c1c(C)oc(-c2ccncc2)c1C [Example 1, 3-Acetyl-2,4-dimethyl-5-(4-pyridyl)furan]",65 to 66.5 °C
12,"Cc1c(-c2ccncc2)sc(-c2ccncc2)c1C=O [Example 34, 2,5-Di(4-pyridyl)-4-methylthiophene-3-carbaldehyde]",139 to 139.5 °C
13,"CSc1ccc(-c2sc(-c3ccncc3)c(C)c2C(C)=O)cc1 [Example 36, 3-Acetyl-4-methyl-5-(4-pyridyl)-2-(4-methylthiophenyl)thiophene]",106 to 108 °C
14,CC(=O)c1cc(-c2ccncc2)sc1N(C)Cc1ccccc1.Cl,199 to 202 °C
15,"O=C1CCc2c(Cl)sc(-c3ccncc3)c21 [Example 54, 1-Chloro-3-(4-pyridyl)-5,6-dihydro-4H-cyclopenta(c)thiophene-4-one]",163 to 165 °C
16,"CC(=O)c1c(-c2ccncc2)sc(Cl)c1C [Example 17, 3-Acetyl-5-chloro-4-methyl-2-(4-pyridyl)thiophene]",60 to 61 °C
17,"Cc1c(-c2ccncc2)sc(-c2ccncc2)c1C(C)O (stereo not shown) [Example 21, 2,5-Di(4-pyridyl)-3-(1-hydroxyethyl)-4-methylthiophene]",155 to 157 °C
18,"COC(=O)c1cc(-c2ccncc2)sc1-c1ccncc1 [Example 23, 2,5-Di(4-pyridyl)-3-methoxycarbonylthiophene]",133 to 135 °C
19,"CC(=O)c1cc(-c2ccncc2)sc1Oc1cc(F)ccc1F [Example 57, 3-Acetyl-2-(2,5-difluorophenoxy)-5-(4-pyridyl)thiophene]",119 to 121 °C
20,"CC(=O)c1c(-c2ccc(F)cc2)sc(-c2ccncc2)c1C [Example 32, 3-Acetyl-2-(4-fluorophenyl)-4-methyl-5-(4-pyridyl)thiophene]",116 to 118 °C
21,"NC(=O)c1cc(-c2ccncc2)sc1-c1ccncc1 [Example 59, 2,5-Di(4-pyridyl)-3-thiophenecarboxamide]",240 to 242 °C
22,"O=C1CCc2c(-c3ccncc3)sc(-c3ccc(F)cc3)c21 [Example 58, 3-(4-Fluorophenyl)-1-(4-pyridyl)-5,6-dihydro-4H-cyclopenta(c)thiophene-4-one]",193 to 195 °C
23,"O=C1CCCc2c(Cl)sc(-c3ccncc3)c21 [Example 45, 1-Chloro-3-(4-pyridyl)-4,5,6,7-tetrahydrobenzo(c)thiophen-4-one]",93 to 95 °C
24,"CC(=O)c1cc(-c2ccncc2)sc1-c1ccncc1 [Example 24, 3-Acetyl-2,5-di(4-pyridyl)thiophene]",117 to 119 °C
25,"CSc1sc(-c2ccncc2)c2c1C(=O)CCC2 [Example 47, 3-Methylthio-1-(4-pyridyl)-4,5,6,7-tetrahydrobenzo(c)thiophen-4-one]",115 to 116 °C
26,"N#Cc1cc(-c2ccncc2)sc1-c1ccncc1 [Example 29, 3-Cyano-2,5-di(4-pyridyl)thiophene]",205 to 207 °C
27,"CC(=O)c1c(-c2ccccc2)sc(-c2ccncc2)c1C [Example 19, 3-Acetyl-4-methyl-2-phenyl-5-(4-pyridyl)thiophene]",111 to 112 °C
